What was measured:
[1] = test system: Equilin Antibody (anti-equilin serum); assay: Cross-reactivity of steroids with anti-equilin serum (radioimmunoassay); format: binding, rabbit; conditions: for Equilin Antibody (Percent Cross-Reactivity): Table 1, anti-equilin serum, [2,4-3H]-equilin tracer
Procedure: A standard was prepared from a stock solution of unlabeled equilin in absolute ethanol (100 ng/ml). A working standard solution containing 1 ng/ml of equilin was prepared in sodium phosphate buffer (0.1 M, pH 7, 0.9% NaCl). The labeled [2,4-^3 H]-equilin solution was prepared in the assay buffer at a concentration of 100 pg/ml. The antiserum was prepared in BSA-assay buffer (1 g BSA/1000 ml sodium phosphate buffer) at a concentration of one-fifth of the final working dilutions.
The standard curve was established by preparing duplicate 3 ml centrifuge tubes containing 0, 50, 100, 250, 500, 1000, and 2000 pg of equilin in a total volume of 0.5 ml assay buffer. The sample tubes were prepared in duplicate with hydrolyzed plasma extract (0.1 ml) and assay buffer (0.4 ml) in a total volume of 0.5 ml. To all standard and sample tubes antibody (0.25 ml) and labeled steroid (0.5 ml) were added. These were mixed and allowed to incubate at 4° C. for 18 hr. After addition of 0.2 ml gamma globulin dextrancoated charcoal (4 g charcoal, 0.4 g dextran, 0.8 g human gamma globulin, 200 ml deionized water), each tube was again mixed and placed in a cold room (4° C.) for 20 min. After centrifugation at 2,500 rev./min for 6 min, 0.5 ml of each supernatant was aliquoted into a counting vial. Then 15 ml of a scintillation medium (4 g of 2,5-diphenyloxazole (PPO), 50 mg of 1,4-di-2-(5-phenyloxazoyl)-benzene(dimethyl-POPOP), 100 ml of an aqueous solubilizer Biosolv BBS-3 (Biosolv is a trademark of Bechman Istruments, Irvine, Calif., U.S.A.) and 1000 ml toluene) was added to each vial. The samples were counted to a relative standard error of less than 2% in a Packard model 3320 liquid scintillation counter, Packard Instrument Co., Downers Grove, Ill., U.S.A., see C. Matthijssen and J. W. Goldzieher, Analyt. Biochem., 10, 401 (1965).
All rabbits immunized with the immunogen produced antisera with high titers and specificity in 6 months' time. The titer was determined from the ability of antibody to bind a constant amount (50 pg) of the labeled steroid. As a primary step, the cross-reactivity [G. E. Abraham, J. Clin. Endocrinol. Metabol., 29, 866 (1969)] of estrone with anti-equilin serum obtained from each rabbit was evaluated. […] These latter two compounds represent about 2% each of the typical composition of estrogens present in conjugated estrogens and will not interfere, as shown, in the validation of the assay.

[2] = Oxidation of equilin to equilenin during formic acid hydrolysis of the conjugate fraction (HPLC); format: physicochemical; conditions: 120 min
Procedure: Plasma (0.2 ml) and distilled water (0.7 ml) were added to a 16×125 nm tube and mixed. [6,7-^3 H]-Estrone-3-sulfate (0.1 ml, 2,000 cpm) and [2,4-^3 H]-equilin (0.1 ml, 2,000 cpm) were then added to correct for recovery through the assay procedure, and the sample again mixed well and allowed to stand at room temperature for 30 min. Diethyl ether (2 ml) was added for extraction of the free compound. The extraction was repeated three times and the combined extracts washed with distilled water (1 ml) and the solvent removed by evaporation. The aqueous phase containing the conjugates was re-extracted with 2 ml of ethyl acetate-ethanol (4:1, v/v). The extraction was repeated two more times and the combined extracts were dried in a centrifuge tube (12 ml) under a stream of nitrogen. The conjugate fraction was hydrolyzed with formic acid. A solution of ethyl acetate (1 ml) containing formic acid (20% ) and ascorbic acid (1 mg) was added to the tube containing the conjugate fraction. The tube was tightly closed, vortexed, and sonified for 10 min before being placed in a 37° C. water bath for 2 hr. The hydrolyzed sample was taken to dryness, sodium phosphate buffer (1 ml) was added. The solution was vortexed and allowed to stand at 20° C. for 10 min. The hydrolyzed free compound was extracted with diethyl ether (2 ml) three times and taken to dryness. […]

## C[C@]12CCC(=O)C=C1CC[C@@H]1[C@@H]2CC[C@]2(C)C(=O)CC[C@@H]12 [4-Androstene-3,17-dione]
[1]
  Equilin Antibody (Percent Cross-Reactivity): < 0.10%

## C[C@]12CC[C@@H]3c4ccc(O)cc4C=C[C@H]3[C@@H]1CCC2=O [6-Dehydroestrone]
[1]
  Equilin Antibody (Percent Cross-Reactivity): < 0.10%

## C[C@]12CCC3=C(CCc4cc(O)ccc43)[C@@H]1CCC2=O [8-Dehydroestrone]
[1]
  Equilin Antibody (Percent Cross-Reactivity): 0.94%

## C[C@]12CCc3c(ccc4cc(O)ccc34)[C@@H]1CC[C@H]2O [17α-Dihydroequilenin]
[1]
  Equilin Antibody (Percent Cross-Reactivity): < 0.10%

## C[C@]12CC[C@H]3C(=CCc4cc(O)ccc43)[C@@H]1CC[C@H]2O [17α-Dihydroequilin]
[1]
  Equilin Antibody (Percent Cross-Reactivity): < 0.10%

## C[C@]12CC[C@@H]3c4ccc(O)cc4CC[C@H]3[C@@H]1CC[C@H]2O [17α-Estradiol]
[1]
  Equilin Antibody (Percent Cross-Reactivity): < 0.10%

## C[C@]12CCc3c(ccc4cc(O)ccc34)[C@@H]1CC[C@@H]2O [17β-Dihydroequilenin]
[1]
  Equilin Antibody (Percent Cross-Reactivity): < 0.10%

## C[C@]12CC[C@H]3C(=CCc4cc(O)ccc43)[C@@H]1CC[C@@H]2O [17β-Dihydroequilin]
[1]
  cross-reaction with anti-equilin serum: 2.9%
  Equilin Antibody (Percent Cross-Reactivity): 2.86%

## C[C@]12CC[C@@H]3c4ccc(O)cc4CC[C@H]3[C@@H]1CC[C@@H]2O [17β-Estradiol]
[1]
  Equilin Antibody (Percent Cross-Reactivity): < 0.10%

## C[C@]12CC[C@@H](O)C[C@@H]1CC[C@@H]1[C@@H]2CC[C@]2(C)C(=O)CC[C@@H]12 [Androsterone]
[1]
  Equilin Antibody (Percent Cross-Reactivity): < 0.10%

## C[C@]12CCC(=O)C=C1CC[C@@H]1[C@@H]2[C@@H](O)C[C@@]2(C)[C@H]1CC[C@]2(O)C(=O)CO [Cortisol]
[1]
  Equilin Antibody (Percent Cross-Reactivity): < 0.10%

## C[C@]12CC[C@H](O)CC1=CC[C@@H]1[C@@H]2CC[C@]2(C)C(=O)CC[C@@H]12 [Dehydroepiandrosterone]
[1]
  Equilin Antibody (Percent Cross-Reactivity): < 0.10%

## C[C@]12CCc3c(ccc4cc(O)ccc34)[C@@H]1CCC2=O [Equilenin]
[1]
  cross-reaction with anti-equilin serum: 3.5%
  Equilin Antibody (Percent Cross-Reactivity): 3.45%

## C[C@]12CC[C@H]3C(=CCc4cc(OS(=O)(=O)O)ccc43)[C@@H]1CCC2=O [Equilin 3-Sulfate]
[1]
  Equilin Antibody (Percent Cross-Reactivity): 1.36%

## C[C@]12CC[C@H]3C(=CCc4cc(O)ccc43)[C@@H]1CCC2=O [Equilin, 3-hydroxy-1,3,5(10),7-estratetraen-17-one]
[1]
  Equilin Antibody (Percent Cross-Reactivity): 100.0%
[2]; formic acid hydrolysis with 0.1% (w/v) ascorbic acid added
  equilin oxidized to equilenin during hydrolysis: 2-3%
[2]; hydrolysis of conjugate fraction with formic acid, no antioxidant
  equilin oxidized to equilenin during hydrolysis: 13-16%

## C[C@]12CC[C@@H]3c4ccc(O)cc4C[C@@H](O)[C@]3(O)[C@@H]1CCC2=O [Equilin-7α,8α-glycol]
[1]
  Equilin Antibody (Percent Cross-Reactivity): < 0.10%

## C[C@]12CC[C@@H]3c4ccc(OS(=O)(=O)O)cc4CC[C@H]3[C@@H]1CCC2=O [Estrone 3-sulfate]
[1]
  Equilin Antibody (Percent Cross-Reactivity): < 0.10%

## C[C@]12CC[C@@H]3c4ccc(O)cc4CC[C@H]3[C@@H]1CCC2=O [Estrone]
[1]
  cross-reaction with anti-equilin serum: negligible cross-reaction
  Equilin Antibody (Percent Cross-Reactivity): 0.78%

## CC(=O)[C@H]1CC[C@H]2[C@@H]3CCC4=CC(=O)CC[C@]4(C)[C@H]3CC[C@]12C [Progesterone]
[1]
  Equilin Antibody (Percent Cross-Reactivity): < 0.10%

## C[C@]12CC[C@H]3[C@@H](CCC4=CC(=O)CC[C@@]43C)[C@@H]1CC[C@@H]2O [Testosterone]
[1]
  Equilin Antibody (Percent Cross-Reactivity): < 0.10%

Source: US4379779A, “Equilin hapten and assay method” (American Home Products Corporation, priority 1980, dated 1983)
